A short description of data set [1]: Drug concentration in PEG 300 supernatant and precipitation in phosphate buffered saline (HPLC). It counts as physicochemical. To be noted: after 24 hours in DPBS. How it is done: The vial was sonicated with 40° C. heat for 30 minutes and then was placed in the 40° C. oven overnight for 20 hours. […] The crystal fine particles were verified by following. 100 µL of the clear PEG 300 solution was added to a vial with 4.3 mL of Dulbecco’s phosphate buffered saline to mimic the ophthalmic vitreous humor. […] The solution stands overnight for 24 hours at room temperature. […] The solution was then centrifuged, and the supernatant was analyzed by HPLC. […] The solution was sonicated 10 minutes until clear. […] The crystal fine particles were verified by following. […] The vial was sonicated with 40° C. heat for 30 minutes and then was placed in the 40° C. oven overnight for 20 hours.

The test system of data set [2] is Calcium-reconstituted sheep blood. Nature of the data set: Activated clotting time (ACT) in calcium-reconstituted sheep blood. It counts as biochemical. To be noted: individual drug at 0.6 ng/mg. Here is the method: The activated clotting time (ACT) evaluation of anticoagulants was performed in Calcium-reconstituted sheep blood and recorded employing the Hemochron® Response device. […] A target amount of drug solution was then added into the test tube. […] The tube was gently shaken before being inserted into the Hemochron Response detector. The ACT read out was recorded and reported. The ACT of the control blood in the absence of any drug as first determined to establish a baseline. Then ACT was determined in the presence of different concentrations of the drug as a single component. Selected drug combinations, were then tested to evaluate for potential synergy in action between the two drugs.

Data set [3] concerns porcine coronary artery. Description: Histopathology scores and QCA of anticoagulant eluting stents in porcine coronary artery model (Examples 2, 3). The class given is in vivo. Here is the method: The mean score was calculated and reported. […] The smaller the fibrin score, the better efficacy.
Data set [4] in a line: In vivo drug released from / remaining on stent (HPLC). Also noted: species or system porcine. The source says:
The stented artery was cut longitudinally with surgical scissors. The stents were separated from the tissue.

Setting [5] is: Example 3 stent, within 28 days.

Turning to `COc1ccc(-n2nc(C(N)=O)c3c2C(=O)N(c2ccc(N4CCCCC4=O)cc2)CC3)cc1` [Apixaban], in data set [1], the “Fraction precipitated out to crystalline form” value was determined as 33%. Also, in data set [2], the ACT was 522.

For the compound `CC1CNc2c(cccc2S(=O)(=O)N[C@@H](CCCNC(=N)N)C(=O)N2CC[C@@H](C)C[C@@H]2C(=O)O)C1` (stereo partly shown) [Argatroban], in data set [3] (7 days), the “Inhibition of fibrin formation compared to bare metal control stents” value is recorded as “not more effective”. Moreover, the ACT in data set [2] is listed as 301.

`O=C(NC[C@H]1CN(c2ccc(N3CCOCC3=O)cc2)C(=O)O1)c1ccc(Cl)s1` [Rivaroxaban]: the “Inhibition of fibrin formation compared to bare metal control stents” value in data set [3] (7 days) is reported as “more effective”. The “Inhibition of fibrin formation compared to control” value in data set [3] (Example 3, fast release formulation, 7 days and/or 28 days) is “more effective”. The “Rivaroxaban amount released from stent” value in data set [4] (Example 3 stent, in combination with m-TOR inhibitor formulation, within 7 days) is “about 68.1 µg”. Also, in data set [4] (setting [5]), the “Percent of rivaroxaban released from stent” value is “about 92.5%” and the “Rivaroxaban dose released from stent” value is recorded as “about 92.5 µg”. The “Cumulative Percent Release of drug by day 7, Rivaroxaban” value in data set [4] (Rivaroxaban/Argatroban combination stent) was “about 70.9%”. Besides, the “Cumulative Percent Release of drug by day 7” value in data set [4] (single-drug stent) is reported as “about 99.5%”.

As to Dalteparin, in data set [3] (7 days), the “Inhibition of fibrin formation compared to bare metal control stents” value is given as “not more effective” and the “Inhibition of smooth muscle cell proliferation (LLL) compared to bare metal control stents” value was “not more effective”.
